Results on 5 molecules are retold here after article PMC9007462 (Journal of Medicinal Chemistry, 2022).

Assay [1] has as its target T1, Human ALDH3A1 (Homo sapiens, UniProt P30838).
T1 construct: made in house
T1 sequence (P30838 1-453): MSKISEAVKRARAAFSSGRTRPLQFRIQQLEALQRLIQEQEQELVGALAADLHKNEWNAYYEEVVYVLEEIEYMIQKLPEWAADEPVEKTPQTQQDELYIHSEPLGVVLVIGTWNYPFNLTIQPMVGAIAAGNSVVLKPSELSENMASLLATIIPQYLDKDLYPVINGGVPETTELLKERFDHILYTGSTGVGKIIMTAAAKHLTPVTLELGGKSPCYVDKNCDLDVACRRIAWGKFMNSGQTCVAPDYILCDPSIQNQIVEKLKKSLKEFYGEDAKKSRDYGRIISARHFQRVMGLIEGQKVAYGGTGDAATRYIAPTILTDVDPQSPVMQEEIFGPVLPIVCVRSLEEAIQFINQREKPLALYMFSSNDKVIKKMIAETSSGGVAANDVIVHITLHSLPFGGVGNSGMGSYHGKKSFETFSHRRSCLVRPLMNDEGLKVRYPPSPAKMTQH
In words: ALDH3A1 inhibition, IC50, Ki and type of inhibition. Format: biochemical. Conditions: measured at a saturating substrate concentration (4-NBA); mean ± SE.

The target of the next assay is T2, Human ALDH1A1 (Homo sapiens, UniProt P00352).
T2 construct: made in house
T2 sequence (P00352 1-501): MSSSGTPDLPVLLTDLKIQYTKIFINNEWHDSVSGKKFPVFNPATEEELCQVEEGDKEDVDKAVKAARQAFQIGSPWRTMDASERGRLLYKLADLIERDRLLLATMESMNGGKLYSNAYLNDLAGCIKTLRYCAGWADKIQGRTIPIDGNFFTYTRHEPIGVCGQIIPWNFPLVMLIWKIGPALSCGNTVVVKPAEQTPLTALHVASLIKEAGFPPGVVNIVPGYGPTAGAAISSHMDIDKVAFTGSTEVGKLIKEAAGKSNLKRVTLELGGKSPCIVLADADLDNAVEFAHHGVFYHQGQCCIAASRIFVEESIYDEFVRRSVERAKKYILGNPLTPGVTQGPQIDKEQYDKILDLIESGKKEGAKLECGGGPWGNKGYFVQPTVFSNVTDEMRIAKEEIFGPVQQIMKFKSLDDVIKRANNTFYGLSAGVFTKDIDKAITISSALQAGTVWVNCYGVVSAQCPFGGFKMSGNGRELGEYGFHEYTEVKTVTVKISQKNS
In words: DEAB analogues as substrates of ALDH1A1. Format: biochemical. The settings on record: 10 μM compound as substrate, relative to activity with 10 μM hexanal (Figure S2). The procedure:
(§1) Human ALDH1A1, ALDH1A3, and ALDH3A1 were cloned and recombinantly expressed from the pET-30 Xa/LIC vector. Protein purification was achieved by affinity chromatography on a nickel-charged chelating Sepharose Fast Flow 5-mL column (His Trap column, Cytiva), which specifically binds the protein due to its N-terminal (His)6 tag, using an ÄKTA FPLC system (Cytiva), as previously described.[55] Enzymes including the His tag were stored at −80 °C in 20 mM Tris/HCl and 0.5 M NaCl, pH 8.0, until use. Reaction buffers were as follows: ALDH1A1 was assayed in 50 mM HEPES, 0.5 mM EDTA, and 0.5 mM DTT, pH 8.0; ALDH1A3 was assayed in 50 mM HEPES, 30 mM MgCl2, and 5 mM DTT, pH 8.0; and ALDH3A1 was assayed in 50 mM Tris–HCl and 5 mM DTT, pH 8.0. Activity under standard conditions was measured fluorimetrically at 25 °C using a Cary Eclipse (Varian) fluorimeter to follow the purification procedure and to check the enzyme concentration before each kinetic experiment. The fluorescence of NADH was characterized at 460 nm with excitation at 340 nm, and 5 μM NAD(P)H was added as an internal standard to obtain the absolute reaction rates.[55] Standard activity was measured at saturating concentrations of substrate using 30 μM hexanal (ALDH1A1), 250 μM hexanal (ALDH1A3), or 250 μM 4-NBA (ALDH3A1). NAD^+ was 500 μM for ALDH1A1 and ALDH1A3, and NADP^+ was 1 mM for ALDH3A1.
According to their structure with a carbonyl group, compounds were tested for their substrate properties against ALDH1A1, ALDH1A3, and ALDH3A1. […] Results are expressed as the percentage of activity at 10 μM versus the activity at 10 μM of their standard substrate (hexanal or 4-NBA). Values are expressed as the mean ± SE.

For the next assay, the system named is PC3. In words: MTT chemosensitivity assay, PC3. The assay is classed as cell-based, human. Conditions: Homo sapiens, PC-3, 96 h exposure, ± SD, at least three independent experiments. The procedure:
(§2) MTT (3-(4, 5-dimethyl-2-thiazolyl)-2, 5-diphenyl-2H-tetrazolium bromide) assay was used to determine cell viability.[64] Immortalized PCa cells (PC-3, Du-145, and LNCaP) were seeded in 96-well plates and allowed to adhere overnight at 37 °C, 5% CO2, and 100% humidity. […] After 96 h of exposure, 200 μL of MTT (Sigma) solution (0.5 mg/mL) was added to each well and incubated at 37 °C for 4 h. The formazan crystals were dissolved in DMSO (Sigma), and the absorbance was read using a microplate reader (Multiskan EX; Thermo Fisher Scientific) at 540 nm. Data analysis was performed using Microsoft Excel 2013 and GraphPad Prism software.
For orientation: Tetrazolium dyes change colour on reduction, which living cells bring about.

Assay [2] concerns the target T3, Human ALDH1A3 (Homo sapiens, UniProt P47895).
T3 construct: made in house
T3 sequence (P47895 1-512): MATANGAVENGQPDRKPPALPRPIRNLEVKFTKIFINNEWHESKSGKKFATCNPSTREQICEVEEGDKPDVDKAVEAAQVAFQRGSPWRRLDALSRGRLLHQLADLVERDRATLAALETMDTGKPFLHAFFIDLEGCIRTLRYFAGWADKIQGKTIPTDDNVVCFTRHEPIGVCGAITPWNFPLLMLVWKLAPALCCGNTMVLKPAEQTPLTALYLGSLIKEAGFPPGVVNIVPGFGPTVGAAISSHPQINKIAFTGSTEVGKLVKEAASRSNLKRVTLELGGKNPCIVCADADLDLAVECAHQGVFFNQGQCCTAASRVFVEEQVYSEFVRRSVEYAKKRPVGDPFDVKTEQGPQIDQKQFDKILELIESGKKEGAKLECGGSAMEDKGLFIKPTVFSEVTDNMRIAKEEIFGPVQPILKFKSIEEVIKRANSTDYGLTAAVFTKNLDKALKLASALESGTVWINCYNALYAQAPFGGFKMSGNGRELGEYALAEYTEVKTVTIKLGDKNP
In words: ALDH1A3 inhibition, IC50, Ki and type of inhibition. Conditions: 6 μM hexanal as substrate; mean ± SE. Format: biochemical. The procedure:
Human ALDH1A1, ALDH1A3, and ALDH3A1 were cloned and recombinantly expressed from the pET-30 Xa/LIC vector. Protein purification was achieved by affinity chromatography on a nickel-charged chelating Sepharose Fast Flow 5-mL column (His Trap column, Cytiva), which specifically binds the protein due to its N-terminal (His)6 tag, using an ÄKTA FPLC system (Cytiva), as previously described.[55] Enzymes including the His tag were stored at −80 °C in 20 mM Tris/HCl and 0.5 M NaCl, pH 8.0, until use. Reaction buffers were as follows: ALDH1A1 was assayed in 50 mM HEPES, 0.5 mM EDTA, and 0.5 mM DTT, pH 8.0; […] Activity under standard conditions was measured fluorimetrically at 25 °C using a Cary Eclipse (Varian) fluorimeter to follow the purification procedure and to check the enzyme concentration before each kinetic experiment. […] In order to determine the IC50 values, reaction rates were determined at various concentrations of inhibitor at a fixed concentration of substrate. […] Values are expressed as the mean ± SE. […] The data of enzymatic activities at different inhibitor concentrations were fitted to the Michaelis–Menten equation to determine the values of Km and Vmax. Next, results were fitted to the equations for competitive, given by [drawing 3]; noncompetitive, given by [drawing 4]; uncompetitive, given by [drawing 5]; and mixed, given by [drawing 6] .[56] The type of inhibition was selected based on the lowest error value. Parameters were expressed as the mean ± SE.

The subject of a further assay is DU145. In words: MTT chemosensitivity assay, DU145. Format: cell-based, human. The settings on record: Homo sapiens, DU-145, 96 h exposure, ± SD, at least three independent experiments. The method, then:
as §2

In a further assay the test system is LNCaP. In words: MTT chemosensitivity assay, LNCaP. Format: cell-based, human. Conditions: Homo sapiens, LNCaP, 96 h exposure, ± SD, at least three independent experiments. The method, then: as §2
For assay [3], the target named is T3, Human ALDH1A3. In words: Inhibition screening, single point at 10 μM, ALDH1A3. Format: biochemical. The settings on record: 10 μM compound; hexanal as substrate (Figure S1). The procedure: as §1, with “Reaction buffers were as follows: ALDH1A1 was assayed in 50 mM HEPES, 0.5 mM EDTA, and 0.5 mM DTT, pH 8.0; ALDH1A3 was assayed in 50 mM HEPES, 30 mM MgCl2, and 5 mM DTT, pH 8.0; and ALDH3A1 was assayed in 50 mM Tris–HCl and 5 mM DTT, pH 8.0.” left out, “NAD^+ was 500 μM for ALDH1A1 and ALDH1A3, and NADP^+ was 1 mM for ALDH3A1.” left out
All compounds tested were dissolved in DMSO and assayed at a final concentration of 1% (v/v) DMSO. […] Alternatively, the enzymatic activity was measured in a Varian Cary 400 UV–vis spectrophotometer, by monitoring the increase in the absorbance of NAD(P)H at 340 nm (ε = 6.22 mM^–1·cm^–1) or in a Cary Eclipse Varian fluorimeter, as described above. […]

The target in assay [4] is T1, Human ALDH3A1. In words: ALDH3A1 inhibition, IC50, Ki and type of inhibition. The assay is classed as biochemical. The settings on record: 31 μM 4-NBA as substrate; mean ± SE. The procedure:
as §1
In order to determine the IC50 values, reaction rates were determined at various concentrations of inhibitor at a fixed concentration of substrate. As substrates for ALDH1A1, ALDH1A3, and ALDH3A1, 5 μM hexanal, 6 μM hexanal, and 31 μM 4-NBA, respectively, were used. The IC50 values were calculated by nonlinear fitting of the obtained data to a sigmoidal plot using GraFit 5.0 (Erithacus software), with the following 4-parameter equation [drawing 2] , where y is the specific activity, x is the inhibitor concentration, background is the minimum y value, range is the fitted uninhibited value minus the background, and s is the slope factor. Values are expressed as the mean ± SE.
Activity assays to determine the type of inhibition and Ki value were performed using various substrate and inhibitor concentrations maintaining the same conditions as for the IC50 experiments and using GraFit 5.0 for data processing. The data of enzymatic activities at different inhibitor concentrations were fitted to the Michaelis–Menten equation to determine the values of Km and Vmax. Next, results were fitted to the equations for competitive, given by [drawing 3]; noncompetitive, given by [drawing 4]; uncompetitive, given by [drawing 5]; and mixed, given by [drawing 6] .[56] The type of inhibition was selected based on the lowest error value. Parameters were expressed as the mean ± SE.

For assay [5], the system named is PC3, DU145 and LNCaP prostate cancer cell lines. In words: MTT chemosensitivity assay, panel of three prostate cancer cell lines. Conditions: Homo sapiens, 96 h exposure, read-out: IC50 against three prostate cancer cell lines. Format: cell-based. The procedure:
as §2

The test system of assay [6] is patient-derived primary prostate tumor epithelial cells. Conditions: other primary samples analyzed in the authors' laboratory; cited from earlier work.

A value given as a limit tells only on which side of the number the result lay.

The IC50 is the concentration that gives 50% inhibition. Turning to `CCCN(CCC)c1ccc(C=O)cc1Cl` [Compound 7, 3-Chloro-4-(dipropylamino)benzaldehyde], the IC50 is 13.7 ± 0.3 µM against Human ALDH3A1 [1]; 77 ± 17 µM in the assay with PC3; 0.55 ± 0.05 µM on Human ALDH1A3 [2]; 90 ± 27 µM in the assay on DU145; 10 ± 3 µM in the assay on LNCaP. Moreover, the ALDH1A1 substrate activity at Human ALDH1A1 is listed as 17.9%.
`Cc1cc(C=O)ccc1N1CCN(C)CC1` [Compound 24, 3-Methyl-4-(4-methylpiperazin-1-yl)benzaldehyde]: the “remaining ALDH1A3 activity” value on Human ALDH1A3 [3] is recorded as 45%.
On to `Cc1cc(C=O)ccc1N1CCOCC1` [Compound 27, 3-Methyl-4-morpholinobenzaldehyde], for which the “remaining ALDH1A3 activity” value on Human ALDH1A3 [3] stood at 10%.
For `CCN(CC)c1ccc(C=O)cc1` [DEAB, 4-(Diethylamino)benzaldehyde, reference compound], the IC50 is 5.67 ± 0.66 µM on Human ALDH3A1 [4]; over 200 µM in the assay with PC3; over 200 µM in assay [5]; 10.4 ± 1 µM on Human ALDH1A3 [2]; over 200 µM in the assay with DU145; over 200 µM in the assay with LNCaP.
Regarding `CC(=O)O[C@@]12CO[C@@H]1C[C@H](O)[C@@]1(C)C(=O)[C@H](O)C3=C(C)[C@@H](OC(=O)[C@H](O)[C@@H](NC(=O)OC(C)(C)C)c4ccccc4)C[C@@](O)([C@@H](OC(=O)c4ccccc4)[C@H]21)C3(C)C` [docetaxel], in assay [6], the IC50 was 0.001 µM.
